For data set [1], the system named is Boophilus microplus Parkhurst strain, SP-resistant. Briefly: Boophilus microplus - dip test. It counts as in vivo. The conditions noted are these: application rate 100 ppm; dip of engorged adult female ticks; laying of fertile eggs, after 7 days. A digest of the protocol: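 Adult engorged females of SP-resistant Parkhurst strain (8–10 per tube) fully immersed in compound diluted in water from a DMSO solution. Ticks then kept on filter discs in a climate-controlled room; efficacy scored from fertile egg laying at 7 days, with unclear eggs held about 42 days until hatch (100% = no fertile eggs).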

Data set [2] can be described thus: logP determination by HPLC on a reversed-phase column (C18), EEC Directive 79/831 Annex V.A8. It counts as physicochemical. Conditions: for log P: HPLC-MS, reversed-phase column (C18); for logP: HPLC, reversed-phase C18, acetonitrile/water with formic acid, 55° C.; for logP^a): HPLC-MS method a), Table I-T3.
The next data set relates to Boophilus microplus. Briefly: Boophilus microplus - injection test. It counts as in vivo. The conditions noted are these: application rate 20 μg/animal; injected into engorged adult female ticks; laying of fertile eggs, after 7 days. In short, it runs like this: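 Engorged adult female Boophilus microplus ticks (5 per dose) each received a 1 μl abdominal injection of compound in DMSO and were held in a climate-controlled room. Efficacy was scored after 7 days from fertile egg laying, with unclear eggs kept until hatching (~42 days); 100% means no fertile eggs.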

The next data set deals with Amblyomma hebraeum. Briefly: Amblyomma hebraeum test (tick nymphs, immersion). It counts as in vivo. Conditions: application rate 100 ppm; tick nymphs immersed for one minute; kill after 42 days. The procedure: Solvent: dimethyl sulphoxide
To produce an appropriate active ingredient formulation, 10 mg of active ingredient are mixed with 0.5 ml of dimethyl sulphoxide, and the concentrate is diluted with water to the desired concentration.
Tick nymphs (Amblyomma hebraeum) are placed into perforated plastic beakers and immersed in the desired concentration for one minute. The ticks are transferred on filter paper into a Petri dish and stored in a climate-controlled cabinet.
After 42 days, the kill in % is determined. 100% means that all of the ticks have been killed; 0% means that none of the ticks have been killed.

For data set [3], the system named is Ctenocephalides felis. Briefly: Ctenocephalides felis - oral test. It counts as in vivo. Conditions: application rate 100 ppm in citrated cattle blood; adult fleas; kill after 2 days. A digest of the protocol:
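About 20 unfed adult cat fleas fed through a parafilm membrane on citrated cattle blood containing compound, dosed from a DMSO stock. Kill in % scored after 2 days; 100% means all fleas dead.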

The next data set concerns Rhipicephalus sanguineus. Nature of the data set: Rhipicephalus sanguineus - in vitro contact tests with adult brown dog ticks. It counts as in vivo. In short, it runs like this:
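Test compound was dissolved in acetone p.a. (9 mg in 1 ml, then diluted), and 250 μl were spread evenly over the inner surface of 25 ml test tubes on an orbital shaker at 30 rpm for 2 h. Once the solvent evaporated, 5-10 adult Rhipicephalus sanguineus ticks were sealed in, kept dark at room temperature, and after 48 h placed on a 45-50° C. hotplate to score dead or moribund ticks.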

In the next data set the test system is Lucilia cuprina. Briefly: Lucilia cuprina test. It counts as in vivo. Conditions: application rate 100 ppm; L1 larvae in minced horsemeat; kill after 2 days. A digest of the protocol:
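About 20 L1 larvae placed on minced horsemeat treated with compound, formulated in DMSO and diluted with water to test concentration. Kill in % scored after 2 days (100% = all larvae dead, 0% = none).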

In a further data set the test system is Musca domestica. Nature of the data set: Musca domestica test. It counts as in vivo. The conditions noted are these: application rate 100 ppm; adult houseflies; kill after 2 days. In short, it runs like this: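 Compound in DMSO, diluted with water, applied to a sugar-solution sponge; vessels hold 10 adult houseflies. Percent mortality scored after 2 days.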

In data set [4] the test system is Ctenocephalides felis. Nature of the data set: Ctenocephalides felis - in vitro contact tests with adult cat fleas. It counts as in vivo. The conditions noted are these: application rate 5 μg/cm^2 (=500 g/ha), after 48 h (dead or moribund). In short, it runs like this:
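Acetone solution coated on test-tube inner walls (900 ppm gives 5 μg/cm^2). After drying, 5-10 adult cat fleas added and kept horizontal at room temperature and ambient humidity. At 48 h fleas knocked down; motionless or uncoordinated ones counted dead/moribund, giving % efficacy.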

Setting [5] is: application rate 5 μg/cm^2, after 48 h (dead or moribund).

Molecules are shown by their SMILES.

Consider `CCc1cc(C(F)(C(F)(F)F)C(F)(F)F)cc(C)c1-n1cc(-c2cnc(Cl)c(C(=O)NC3(C#N)CC3)c2)cn1` [I-T3-110], for which the efficacy (in data set [1]; in the data set on Boophilus microplus; in the data set on Amblyomma hebraeum; in the data set with Ctenocephalides felis [3]; in the data set on Rhipicephalus sanguineus (setting [5]); with Lucilia cuprina) was 100% each time. The efficacy in the data set with Musca domestica and in the data set on Ctenocephalides felis [4] was 100% each time. Besides, the “log P” value in data set [2] came out at 4.1.

`Cc1cc(C(F)(C(F)(F)F)C(F)(F)F)cc(C)c1-c1cnn(-c2cnc(Cl)c(C(=O)NC3(C#N)CC3)c2)c1` [I-T4-4]: the efficacy (in data set [1]; with Boophilus microplus; with Amblyomma hebraeum; with Ctenocephalides felis [3]; with Rhipicephalus sanguineus (setting [5]); in the data set with Lucilia cuprina) was 100% each time. Moreover, the efficacy in the data set on Ctenocephalides felis [4] is on record as 100%. Also, in data set [2], the logP amounted to 4.3.

In the case of `CCc1cc(C(F)(C(F)(F)F)C(F)(F)F)cc(Cl)c1-n1cc(-c2ccc(Cl)c(C(=O)NC3(C#N)CC3)c2)cn1` [I-T3-71], the efficacy (in data set [1]; in the data set with Boophilus microplus; in the data set on Amblyomma hebraeum; in the data set on Ctenocephalides felis [3]; in the data set on Rhipicephalus sanguineus (setting [5]); in the data set with Lucilia cuprina) was 100% in each case. Also, the efficacy with Musca domestica and with Ctenocephalides felis [4] was 100% in each case. Moreover, in data set [2], the “logP^a)” value turned out to be 4.5.

Regarding `Cc1ncc(-c2cnn(-c3c(Cl)cc(C(F)(C(F)(F)F)C(F)(F)F)cc3Cl)c2)cc1C(=O)NC1(C#N)CC1` [I-T3-92], the efficacy in data set [1] is 100%; in the data set on Boophilus microplus it was 100%; with Amblyomma hebraeum it was 100%; with Ctenocephalides felis [3], 100%; in the data set on Rhipicephalus sanguineus (setting [5]), 80%; in the data set with Lucilia cuprina, 100%. For the same compound, the efficacy with Musca domestica and in the data set on Ctenocephalides felis [4] was 100% in each case. Further, in [2], the “log P” value came to 3.4.

For `Cc1cc(C(F)(C(F)(F)F)C(F)(F)F)cc(Cl)c1-n1cc(-c2ccc(Cl)c(C(=O)NC3CC3)c2)cn1` [I-T3-63], the efficacy (in data set [1]; with Boophilus microplus; in the data set with Amblyomma hebraeum; with Ctenocephalides felis [3]; with Rhipicephalus sanguineus (setting [5]); in the data set on Lucilia cuprina) was 100% in each case. Also, the efficacy in the data set with Musca domestica and with Ctenocephalides felis [4] was 100% each time. Further, in [2], the “logP^a)” value came to 4.4.

As for `Cc1cc(C(F)(C(F)(F)F)C(F)(F)F)cc(C)c1-n1cc(-c2ccc(Cl)c(C(=O)NC3(C#N)CC3)c2)cn1` [I-T3-3], the efficacy (in [1]; in the data set with Boophilus microplus; with Amblyomma hebraeum; in the data set on Ctenocephalides felis [3]; with Rhipicephalus sanguineus (setting [5]); with Lucilia cuprina) was 100% throughout. Besides, the efficacy with Musca domestica and in the data set with Ctenocephalides felis [4] was 100% throughout. Further, the “logP^a)” value in data set [2] worked out at 4.2.

Consider `O=C(NC1CC1)c1cc(-c2cnn(-c3c(Cl)cc(C(F)(C(F)(F)F)C(F)(F)F)cc3OC(F)(F)F)c2)ccc1Cl` [I-T3-162], for which the efficacy (in data set [1]; with Boophilus microplus; in the data set with Amblyomma hebraeum; with Ctenocephalides felis [3]; with Rhipicephalus sanguineus (setting [5]); in the data set with Lucilia cuprina) was 100% in each case. The efficacy in the data set with Musca domestica and in the data set on Ctenocephalides felis [4] was 100% each time. In addition, the “log P” value in [2] worked out at 4.6.

Consider `Cc1cc(C(F)(C(F)(F)F)C(F)(F)F)cc(C)c1-c1cc(-c2ccc(Cl)c(C(=O)NC3(C#N)CC3)c2)on1` [I-T22-2], for which the efficacy (in data set [1]; in the data set with Boophilus microplus; with Amblyomma hebraeum; with Ctenocephalides felis [3]; in the data set on Rhipicephalus sanguineus (setting [5]); in the data set with Lucilia cuprina) was 100% each time. Further, the efficacy in the data set on Musca domestica and with Ctenocephalides felis [4] was 100% each time. Besides, the logP in data set [2] is 4.6.

Take `N#CC1(NC(=O)c2cc(-c3cnn(-c4c(Cl)cc(C(F)(C(F)(F)F)C(F)(F)F)cc4Cl)c3)cnc2Cl)CC1` [I-T3-43]: the efficacy in data set [1] is listed as 100%; in the data set with Boophilus microplus, 100%; in the data set on Amblyomma hebraeum it was 100%; in the data set on Ctenocephalides felis [3] it was 100%; with Rhipicephalus sanguineus (setting [5]), 80%; in the data set on Lucilia cuprina, 100%. Moreover, the efficacy in the data set on Musca domestica and in the data set on Ctenocephalides felis [4] was 100% each time. The “logP^a)” value in data set [2] amounted to 3.8.

Consider `CCc1cc(C(F)(C(F)(F)F)C(F)(F)F)cc(C)c1-n1cc(-c2cnc(Cl)c(C(=O)NC3CC3)c2)cn1` [I-T3-109], for which the efficacy (in data set [1]; with Boophilus microplus; with Amblyomma hebraeum; in the data set with Ctenocephalides felis [3]; in the data set with Rhipicephalus sanguineus (setting [5]); in the data set on Lucilia cuprina) was 100% throughout. For the same compound, the efficacy with Musca domestica and with Ctenocephalides felis [4] was 100% throughout. The lipophilicity (log P) in data set [2] came to 4.2.

For the compound `CCc1cc(C(F)(C(F)(F)F)C(F)(F)F)cc(C)c1-n1cc(-c2ccc(Cl)c(C(=O)NC3CC3)c2)cn1` [I-T3-44], the efficacy (in data set [1]; in the data set with Boophilus microplus; in the data set with Amblyomma hebraeum; in the data set with Ctenocephalides felis [3]; with Rhipicephalus sanguineus (setting [5]); in the data set on Lucilia cuprina) was 100% in each case. Also, in the data set with Ctenocephalides felis [4], the efficacy amounted to 100%. The “logP^a)” value in data set [2] is listed as 4.7.

For the compound `Cc1cc(C(F)(C(F)(F)F)C(F)(F)F)cc(C(F)(F)F)c1-n1cc(-c2cnc(Cl)c(C(=O)NC3(C#N)CC3)c2)cn1` [I-T3-108], the efficacy came out at 100% in data set [1]; 100% with Boophilus microplus; 100% in the data set with Amblyomma hebraeum; 100% in the data set on Ctenocephalides felis [3]; 100% in the data set on Rhipicephalus sanguineus (application rate 1 μg/cm^2, after 48 h (dead or moribund)); 100% in the data set with Lucilia cuprina. Moreover, the efficacy in the data set on Musca domestica and with Ctenocephalides felis [4] was 100% each time. The log partition coefficient (log P) in [2] is given as 4.0.

With `CCc1cc(C(F)(C(F)(F)F)C(F)(F)F)cc(Cl)c1-n1cc(-c2ccc(Cl)c(C(=O)NC3CC3)c2)cn1` [I-T3-72], the efficacy (in data set [1]; with Boophilus microplus; with Amblyomma hebraeum; in the data set on Ctenocephalides felis [3]; in the data set on Rhipicephalus sanguineus (setting [5]); in the data set on Lucilia cuprina) was 100% throughout. The efficacy in the data set with Musca domestica and in the data set with Ctenocephalides felis [4] was 100% each time. The “logP^a)” value in data set [2] stood at 4.6.

With `Cc1cc(C(F)(C(F)(F)F)C(F)(F)F)cc(C(F)(F)F)c1-n1cc(-c2cnc(Cl)c(C(=O)NC3CC3)c2)cn1` [I-T3-106], the efficacy (in data set [1]; with Boophilus microplus; with Amblyomma hebraeum; in the data set on Ctenocephalides felis [3]; with Rhipicephalus sanguineus (setting [5]); in the data set with Lucilia cuprina) was 100% in each case. Moreover, the efficacy in the data set on Musca domestica and in the data set on Ctenocephalides felis [4] was 100% throughout. The “log P” value in data set [2] was 4.0.

On to `N#CC1(NC(=O)c2cc(-c3cnn(-c4ccc(C(F)(C(F)(F)F)C(F)(F)F)cc4C(F)(F)F)c3)ccc2Cl)CC1` [I-T3-53], for which the efficacy in [1] came to 100%; in the data set with Boophilus microplus, 100%; with Amblyomma hebraeum, 80%; in the data set on Ctenocephalides felis [3], 100%; with Rhipicephalus sanguineus (setting [5]), 100%; with Lucilia cuprina it was 100%. In the data set on Musca domestica, this compound showed an efficacy of 100%. The “logP^a)” value in data set [2] is reported as 4.3.

Values taken from patent publication US9758485B2, “Compounds for controlling arthropods” (priority 2013, dated 2017).
